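Where inhibition never reached the appropriate level, the endpoint shown equals the highest concentration tested. Otherwise, values were interpolated linearly from a five-concentration, 48-hour dose response in 96-well plates. GI50 is the concentration that inhibits growth by half.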 Calls of active or inactive are those of the source. No stated cut-off is given here; in the data, active = GI50 up to about 1.1 µM and inactive = higher. Numbered stars: 1 amine (or outer) side, 2 acyl side, 3 side chain; on linkers, the order of the positions; unused ones are H or OH. Bridge positions count the residues as written; N and C are the ends. Square brackets hold non-standard residues; d marks the D form. Peptide text beside a SMILES is read from it. I, II: the chains in the order shown. Actinocin(9to1) = Cc1c2oc3c(C)ccc(C(=O)[*:1])c3nc-2c(C(=O)[*:2])c(N)c1=O; NMeH = CN[CH](Cc1c[nH]cn1)C(=O)O; Sar = CNCC(=O)O
Legend:
Experiment in all cases: NCI-60 cell line screen, 48 h
NCI-H460 = tested on: NCI-H460
CAKI-1 = tested on: CAKI-1
NCI-H522 = tested on: NCI-H522
A549 = tested on: A549
COLO 205 = tested on: COLO 205
HL-60 = tested on: HL-60
RPMI-8226 = tested on: RPMI-8226
CCRF-CEM = tested on: CCRF-CEM
SF-539 = tested on: SF-539
ACHN = tested on: ACHN
HCT-15 = tested on: HCT-15
KM12 = tested on: KM12
Malme-3M = tested on: Malme-3M
SN12C = tested on: SN12C
SK-MEL-2 = tested on: SK-MEL-2
UACC-62 = tested on: UACC-62
MDA-MB-231 = tested on: MDA-MB-231
Hs-578T = tested on: Hs-578T
MDA-MB-435 = tested on: MDA-MB-435
DU-145 = tested on: DU-145

SMILES	GI50 (NCI-H460)	GI50 (CAKI-1)	GI50 (NCI-H522)	GI50 (A549)	GI50 (COLO 205)	GI50 (HL-60)	GI50 (RPMI-8226)	GI50 (CCRF-CEM)	GI50 (SF-539)	GI50 (ACHN)	GI50 (HCT-15)	GI50 (KM12)	GI50 (Malme-3M)	GI50 (SN12C)	GI50 (SK-MEL-2)	GI50 (UACC-62)	GI50 (MDA-MB-231)	GI50 (Hs-578T)	GI50 (MDA-MB-435)	GI50 (DU-145)
COC(=O)C1CC(C(=O)OC)c2nc3cc(C)c(C)cc3nc21 (centres undefined)	> 100 µM (inactive)	> 100 µM (inactive)	> 100 µM (inactive)	> 100 µM (inactive)	> 100 µM (inactive)	> 100 µM (inactive)	> 100 µM (inactive)	> 100 µM (inactive)	> 100 µM (inactive)	> 100 µM (inactive)	> 100 µM	> 100 µM (inactive)	> 100 µM (inactive)	> 100 µM (inactive)	> 100 µM (inactive)	> 100 µM (inactive)	–	–	–	–
CCOc1ccccc1/N=N/c1ccc2oc(=O)c(C(C)=O)cc2c1	> 10 µM (inactive)	> 100 µM (inactive)	58.9 µM (inactive)	> 100 µM (inactive)	> 100 µM (inactive)	> 100 µM (inactive)	> 100 µM (inactive)	> 100 µM (inactive)	> 100 µM (inactive)	–	> 100 µM	> 100 µM (inactive)	> 100 µM (inactive)	> 100 µM (inactive)	71 µM (inactive)	> 100 µM (inactive)	–	–	–	–
C[N+](C)(C)CC1CCCC/C1=N\O (centres undefined)	> 100 µM (inactive)	–	> 100 µM (inactive)	> 100 µM (inactive)	> 100 µM (inactive)	> 100 µM (inactive)	> 100 µM (inactive)	> 100 µM (inactive)	> 100 µM (inactive)	> 100 µM (inactive)	> 100 µM	> 100 µM (inactive)	> 100 µM (inactive)	> 100 µM (inactive)	> 100 µM (inactive)	> 100 µM (inactive)	–	–	–	–
O=C(/C=C/c1c(O)ccc2ccccc12)c1cccc(O)c1	> 100 µM (inactive)	> 100 µM (inactive)	63.4 µM (inactive)	> 100 µM (inactive)	> 100 µM (inactive)	20.7 µM (inactive)	64.3 µM (inactive)	30.1 µM (inactive)	> 100 µM (inactive)	> 100 µM (inactive)	> 100 µM	> 100 µM (inactive)	59.8 µM (inactive)	> 100 µM (inactive)	42.3 µM (inactive)	28.8 µM (inactive)	–	–	–	–
O=C1C2=C(c3ccccc31)C(c1ccc([N+](=O)[O-])cc1)NC(S)=N2 (centres undefined)	67.8 µM (inactive)	> 100 µM (inactive)	30.5 µM (inactive)	48.5 µM (inactive)	> 100 µM (inactive)	35.6 µM (inactive)	30.2 µM (inactive)	38.7 µM (inactive)	> 100 µM (inactive)	70 µM (inactive)	51.9 µM	87.7 µM (inactive)	80.7 µM (inactive)	47.4 µM (inactive)	96.8 µM (inactive)	43.5 µM (inactive)	–	–	–	–
COc1cc2c3c(n(C)c(=O)c2cc1OC)-c1cc2c(cc1/C3=C/CCCCBr)OCO2	17.8 µM (inactive)	5.86 µM (inactive)	4.16 µM (inactive)	> 100 µM (inactive)	> 100 µM (inactive)	30.3 µM (inactive)	2.54 µM (inactive)	1.7 µM (inactive)	–	4.4 µM (inactive)	> 100 µM	> 100 µM (inactive)	> 100 µM (inactive)	–	> 100 µM (inactive)	–	> 100 µM (inactive)	> 100 µM (inactive)	–	–
COC(=O)C1=CCON(c2ccccc2)C1c1ccccc1 (centres undefined)	48.2 µM (inactive)	42.9 µM (inactive)	20.7 µM (inactive)	40.2 µM (inactive)	65.8 µM (inactive)	24.9 µM (inactive)	29.2 µM (inactive)	47.4 µM (inactive)	> 100 µM (inactive)	57 µM (inactive)	38 µM	45 µM (inactive)	48.1 µM (inactive)	> 10 µM (inactive)	65.8 µM (inactive)	49.8 µM (inactive)	–	–	–	–
O=c1cc(-c2ccccc2)[nH]c2cc(Cl)cc(Cl)c12	59 µM (inactive)	49 µM (inactive)	12.1 µM (inactive)	53.3 µM (inactive)	> 100 µM (inactive)	> 100 µM (inactive)	> 100 µM (inactive)	> 100 µM (inactive)	29.5 µM (inactive)	43.9 µM (inactive)	6.79 µM	5.04 µM (inactive)	20.6 µM (inactive)	69 µM (inactive)	46.1 µM (inactive)	23.2 µM (inactive)	–	–	–	–
O=C1C2=C(c3ccccc31)C(c1ccccc1)NC(S)=N2 (centres undefined)	91.6 µM (inactive)	48.8 µM (inactive)	33.7 µM (inactive)	45.9 µM (inactive)	> 100 µM (inactive)	17.9 µM (inactive)	40.6 µM (inactive)	30.1 µM (inactive)	19.2 µM (inactive)	> 100 µM (inactive)	37.1 µM	41.9 µM (inactive)	> 100 µM (inactive)	> 100 µM (inactive)	84.1 µM (inactive)	29 µM (inactive)	–	–	–	–
CC12CCC(/C(=N/c3ccc([N+](=O)[O-])cc3)C1=O)C2(C)C (centres undefined)	25.6 µM (inactive)	19.3 µM (inactive)	–	36.1 µM (inactive)	19.4 µM (inactive)	–	20.1 µM (inactive)	–	18.2 µM (inactive)	> 100 µM (inactive)	24.6 µM	19.9 µM (inactive)	13.9 µM (inactive)	–	19 µM (inactive)	> 100 µM (inactive)	18.3 µM (inactive)	–	17.1 µM (inactive)	25.7 µM (inactive)
COc1ccc2nc(-c3cccs3)cc(C(O)CN3CCSCC3)c2c1 (centres undefined)	16.3 µM (inactive)	17.3 µM (inactive)	14.1 µM (inactive)	30.1 µM (inactive)	22.9 µM (inactive)	2.58 µM (inactive)	10.5 µM (inactive)	11.9 µM (inactive)	22.1 µM (inactive)	13.5 µM (inactive)	16.1 µM	22.3 µM (inactive)	15.2 µM (inactive)	25.1 µM (inactive)	17 µM (inactive)	17.7 µM (inactive)	–	–	–	–
O=C1OC(CS(=O)(=O)c2ccccc2)CC1O (centres undefined)	> 100 µM (inactive)	> 100 µM (inactive)	53.1 µM (inactive)	> 100 µM (inactive)	> 100 µM (inactive)	–	> 100 µM (inactive)	> 100 µM (inactive)	> 100 µM (inactive)	> 100 µM (inactive)	> 100 µM	> 100 µM (inactive)	22.6 µM (inactive)	> 100 µM (inactive)	> 100 µM (inactive)	41 µM (inactive)	> 100 µM (inactive)	–	> 100 µM (inactive)	> 100 µM (inactive)
CCOC1CCC2C(CCC(/C=C/c3ccc(O)c4ncccc34)N2C)C1 (centres undefined)	7.89 µM (inactive)	–	1.99 µM (inactive)	25.1 µM (inactive)	3.56 µM (inactive)	3.84 µM (inactive)	25.4 µM (inactive)	4.65 µM (inactive)	3.67 µM (inactive)	32.7 µM (inactive)	40.8 µM	17.4 µM (inactive)	31.6 µM (inactive)	4.78 µM (inactive)	–	8.89 µM (inactive)	–	15.2 µM (inactive)	–	10.3 µM (inactive)
O=C(c1ccc2ccccc2c1)C1S(=O)(=O)OCCOS1(=O)=O	> 100 µM (inactive)	> 100 µM (inactive)	–	> 100 µM (inactive)	> 100 µM (inactive)	> 100 µM (inactive)	> 100 µM (inactive)	> 100 µM (inactive)	–	> 100 µM (inactive)	> 100 µM	> 100 µM (inactive)	> 100 µM (inactive)	> 100 µM (inactive)	> 100 µM (inactive)	–	–	–	> 100 µM (inactive)	> 100 µM (inactive)
CCOc1cc2c(OCc3ccccc3)cc3c4cc(OC)c(OC)cc4c[n+](C)c3c2cc1OC	4.97 µM (inactive)	25.4 µM (inactive)	0.391 µM (active)	4.82 µM (inactive)	0.259 µM (active)	–	2.06 µM (inactive)	0.494 µM (active)	1.3 µM (inactive)	19.4 µM (inactive)	59.6 µM	1.15 µM (inactive)	0.986 µM (active)	0.471 µM (active)	1.22 µM (inactive)	1.27 µM (inactive)	2.29 µM (inactive)	–	0.789 µM (active)	3.62 µM (inactive)
Nc1ccc(O)c2c1C(=O)c1c(N)ccc(O)c1C2=O	> 100 µM (inactive)	> 100 µM (inactive)	> 100 µM (inactive)	> 100 µM (inactive)	> 100 µM (inactive)	> 100 µM (inactive)	> 100 µM (inactive)	> 100 µM (inactive)	> 100 µM (inactive)	> 100 µM (inactive)	> 100 µM	> 100 µM (inactive)	> 100 µM (inactive)	> 100 µM (inactive)	> 100 µM (inactive)	> 100 µM (inactive)	–	–	–	–
Cc1c2oc3c(C)ccc(C(=O)NC4C(=O)NC(C(C)C)C(=O)N5CCCC5C(=O)N(C)CC(=O)N(C)C(Cc5cnc[nH]5)C(=O)OC4C)c3nc-2c(C(=O)NC2C(=O)NC(C(C)C)C(=O)N3CCCC3C(=O)N(C)CC(=O)N(C)C(Cc3cnc[nH]3)C(=O)OC2C)c(N)c1=O (centres undefined) (I: TVP[Sar][NMeH] / II: TVP[Sar][NMeH]; ester I:1-I:C, II:1-II:C; linker I:N-II:N via Actinocin(9to1); configuration not given here)	37.7 µM (inactive)	38.1 µM (inactive)	16.8 µM (inactive)	61.9 µM (inactive)	31.3 µM (inactive)	63.7 µM (inactive)	31.6 µM (inactive)	59 µM (inactive)	28.8 µM (inactive)	51.3 µM (inactive)	> 100 µM	62.1 µM (inactive)	55.7 µM (inactive)	57 µM (inactive)	26.3 µM (inactive)	30.3 µM (inactive)	> 100 µM (inactive)	1 µM (active)	63.4 µM (inactive)	–
